Legend:
[1] = system: human osteosarcoma cells (MG-63); experiment: Assessment of cytotoxicity by SRB assay; type: cell-based; details: MG-63 cells, 0.01 μM to 100 μM for 72 h
Method: (§1) The human prostate cancer cells (PC3) and human osteosarcoma cells (MG-63) were obtained from Nawah Scientific Inc. (Mokatam, Cairo, Egypt) and cultured in DMEM (Dulbecco's modified eagle's medium), Gibco, USA, supplemented with fetal bovine serum (FBS) at a concentration of 10% and 100 U/mL of penicillin and streptomycin (PS). The Cells were incubated at 37° C. in a humidified environment that contained 5% CO2.
(§2) Cells were seeded in 96-well plates as aliquots of 100 μL cell suspension and incubated in a complete media for 24 h. afterward, cells were treated with 3-(2-(6-Methoxypyridin-3-yl)-4,5-diphenyl-1H-imidazol-1-yl)-N,N-dimethylpropan-1-amine at diverse concentrations ranging from 0.01 μM to 100 μM for 72 h. Then, cells were fixed at 4° C. for one hour with 150 μL of 10% trichloroacetic acid (TCA). After washing the cells five times with distilled water, 70 μL of sulforhodamine (SRB) solution (0.4% w/v) was added and incubated for 10 min at room temperature in a dark place. […] Then, 150 μL of Tris pH 10.5 (10 mM) was added, and the absorbance was measured at 540 nm using a BMG LABTECH®- FLUOstar Omega microplate reader (Ortenberg, Germany). Half maximal inhibitory concentrations (IC50) values were calculated for each experiment using GraphPad Prism 6 software. […]
(§3) The inhibition was calculated using the following equation: Inhibition %=100-Average Viability

[2] = system: human prostate cancer cells (PC3); experiment: Assessment of cytotoxicity by SRB assay; type: cell-based; details: 0.01 μM to 100 μM for 72 h
Method: as §1, §2, §3

melting point: 125 to 127 °C
SMILES: COc1ccc(-c2nc(-c3ccccc3)c(-c3ccccc3)n2CCCN(C)C)cn1 [3-(2-(6-Methoxypyridin-3-yl)-4,5-diphenyl-1H-imidazol-1-yl)-N,N-dimethylpropan-1-amine]
antiproliferative activities [1]: excellent antiproliferative activities
antiproliferative activities [2]: excellent antiproliferative activities
